Several values for one entry are separate records, joined by “and”; a condition that tells them apart may be missing. Identical values can stand only once. Like-named read-outs stand apart in the source and are kept apart here. One block for each compound: values may come before it.
Legend:
[1] = Therapeutic agent brain penetration studies (brain concentration); format: in vivo, wildtype FVB mice; conditions: for concentration at 1 h: female; for concentration at 1 h / Brain concentration of loperamide, individual animals / Brain concentration of loperamide, mean: 1 h
Procedure: The drug was administered within 1 h of preparation.
Animals received food and water ad libitum.
(§1) Samples were pre-treated as follows. […] 1000 μl of diethyl ether was added.

in vivo = conditions: for concentration at 60 min / concentration at 5 min / concentration at 30 min / AUC(0-t): female, FVB (wildtype), mouse, in vivo; for AUC(0-t): iv
Procedure: The following elacridar nanoparticle suspension was used in these experiments: 5% elacridar w/w plus 1% w/w TPGS, where 2 ml of NP formulation was diluted with 8 ml of 20% TPGS to give a final elacridar concentration of 10 mg/ml.
The drug was mixed, sonicated and administered within 1 h. The dose used was 50 mg/kg (10 μl/g).
The drug was mixed by vortex and administered within 1.5 h. The dose used was 33 mg/kg (10 μl/g).
The drug was administered within 1 h of preparation. The dose used was 5 mg/kg (5 μl/g).
Non-transgenic (wildtype) FVB mice, females, aged 8 to 10 weeks were used. Animals received food and water ad libitum. Mice in the treatment group (n=5) received elacridar NP formulation orally by gavage in the morning (9-10 am). Mice in the control group (n=5) received no elacridar. All mice (treatment and control group) received the therapeutic agent by i.v. injection in the tail vein in the afternoon (3-4 pm). Blood samples (50 μl) were drawn by bleeding from the tip of the tail at 5 min and 30 min after drug administration. At 1 h after API administration the animals were anesthetized using isoflurane and blood was drawn by cardiac puncture. Next, the animal was killed by cervical dislocation and the brains were harvested. Blood was kept on ice until centrifugation (5 min at 5000 g) within 2 h. Brains were kept on ice for weighing and stored at −20° C. until homogenization. Brains were homogenized in 3 ml of 1% w/v of bovine serum albumin in water.
The mice received elacridar at the standard dose of 100 mg/kg. […] The i.v. administration route was selected for the therapeutic agent in order to achieve the most similar plasma exposure of the therapeutic agent between animals receiving therapeutic agent alone or therapeutic agent with elacridar.
Samples were pre-treated as follows. Plasma (5 to 100 μl) was made up to 100 μl with blank human plasma or brain homogenate (100 μl) and pipetted into a 2 ml eppendorf vial. 50 μl of the internal standard (IS) solution (1000 nM of the deuterated analyte) in acetonitrile:water (30:70; v/v) was added. 1000 μl of diethyl ether was added. Tubes were vigorously mixed for at least 5 min then centrifuged (5 min at 5000 g) before being placed in a bath of ethanol with dry-ice in order to freeze the aqueous bottom layer. The organic supernatant was decanted into a clean 1.5 ml Brand vial and evaporated under vacuum in a Speed-Vac (Savant).
For HPLC-MS/MS analyses, the HPLC systems consisted of an Ultimate DGP-3600A pump with a SRD-3600 Solvent Rack and a model WPS-3000TSL autosampler (Dionex, Sunnyvale, Calif., USA). The HPLC column (100×2.1 mm) was packed with 3 um C18 Extend material. The column effluent was guided to an electrospray ionization (ESI) source of an AP13000 mass spectrometer (ABSciex). The mobile phase composition was: Mobile phase A was 0.1% formic acid in water; and Mobile phase B was Methanol (LC-MS quality, Merck).
Pharmacokinetic analyses were performed using the Microsoft Excel add-in program PKsolver (see e.g., Ward K W et al., J Pharmacol Exp Ther 2004; 310: 703-9, which is incorporated herein in its entirety). Calculations for oral administrations were done by the non-compartmental analyses—extravascular model, whereas we used the non-compartmental analysis—bolus model for i.v. injections. The maximum plasma levels (Cmax) were calculated by comparing the means of the plasma levels at each time point. The Tmax is considered the time point at which the Cmax was reached. The half-life (T½) was calculated from the final log-linear part of the plasma concentration-time curves. The area-under-the-curve for the plasma concentration (plasma AUC) was calculated using the linear trapezoidal rule. Both the AUC from time=0 to the last sampling point (48 h) as well as the AUC extrapolated to infinity was calculated. The oral bioavailability was calculated based on the AUC(0-inf) values. Student t-test was used to compare the means of groups where applicable.

[2] = parameters: species or system female Sprague-Dawley rats; conditions: rat, in vivo, iv, 5 mg/kg
Procedure: Studies were conducted in female Sprague-Dawley rats. […] The selected 100 mg/kg dose is well above the level where nonlinear pharmacokinetics have been documented. Ten animals were used at weekly intervals between each dosing to allow washout of the drug from the previous dosing.
Elacridar suspension formulation was prepared by weighing 100.03 mg of elacridar, which was first suspended in 5 ml of water, followed by 5 ml of vehicle solution (2.5% w/v of hydroxypropyl methyl cellulose (HPMC) and 2% v/v of Tween 80). This suspension was stirred for about 2.5 hours prior to dosing. The final concentration was 10 mg/ml. This suspension was given at 10 μl per gram body weight to achieve a dose level of 100 mg/kg
Elacridar nanoparticle (NP) suspensions were used as received, except for a final 5-fold dilution step to obtain a NP suspension of 10 mg/ml of elacridar.
There were three study groups: 1) Elacridar Suspension (n=4); 2) Elacridar TPGS nanoparticles (n=5); and 3) Elacridar Poloxamer nanoparticles (n=5). All animals received elacridar orally by gavage under light isoflurane anesthesia. The animals were fasted for a period of 3 h before drug administration. Food pellets were returned to the cages after the 4 h sampling point. Blood samples from the tail vein at: 15, 30 min, 1, 2, 4, 7, 24, 30 and 48 hours. Samples were kept on ice and centrifuged within 2 h to separate plasma. Plasma was stored at −20° C.
Formulation for i.v. administration was prepared by weighing 61.12 mg of elacridar and dissolving this in 2.056 ml of DMSO. The final concentration was 30 mg/ml. Animals (n=4) received […] per gram body weight (5 mg/kg). Blood samples were taken from the tail vein at: 5, 15, 30 min, 1, 2, 4, 7, 24, 30 and 48 h. Samples were kept on ice and centrifuged within 2 h to separate plasma. Plasma was stored at −20° C.
as §1

[3] = Docetaxel plasma concentration, mean
[4] = imatinib with elacridar, 30 min
[5] = imatinib with elacridar, 60 min
[6] = loperamide 5 mg/kg i.v. with elacridar TPGS NP 100 mg/kg p.o. about 6 h before

complications of dosing ([1]; mouse, in vivo, iv): without complications | concentration at 60 min (in vivo; Docetaxel plasma concentration, individual animals): 3.03 µg/mL | concentration at 5 min (in vivo; [3]): 206 µg/mL | concentration at 30 min (in vivo; [3]): 12.2 µg/mL | concentration at 60 min (in vivo; [3]): 2.57 µg/mL | AUC(0-t) (in vivo; 33 mg/kg, Docetaxel plasma AUC(0-1 h), individual animals): 54.1 µg·h/mL | AUC(0-t) (in vivo; 33 mg/kg, Docetaxel plasma AUC(0-1 h), mean): 53.3 µg·h/mL
Compound: CC(=O)O[C@@]12CO[C@@H]1C[C@H](O)[C@@]1(C)C(=O)[C@H](O)C3=C(C)[C@@H](OC(=O)[C@H](O)[C@@H](NC(=O)OC(C)(C)C)c4ccccc4)C[C@@](O)([C@@H](OC(=O)c4ccccc4)[C@H]21)C3(C)C [docetaxel]

AUC(0-48 h) [2]: 260.3 µg·min/mL | AUC(0-inf) [2]: 272.2 µg·min/mL | Cmax [2]: 0.8265 µg/mL | F [2]: 100.0% | Tmax [2]: 0 h | T½ [2]: 6.9 h
Compound: DMSO

complications of dosing ([1]; mouse, in vivo, iv): without complications | Imatinib plasma concentration, mean (in vivo; imatinib alone, 5 min): 49580.0 ng/mL | Imatinib plasma concentration, mean (in vivo; imatinib alone, 30 min): 10116.0 ng/mL | Imatinib plasma concentration, mean (in vivo; imatinib alone, 60 min): 2068.0 ng/mL | Imatinib plasma concentration, mean (in vivo; imatinib with elacridar, 5 min): 51320.0 ng/mL | Imatinib plasma concentration, mean (in vivo; [4]): 10414.0 ng/mL | Imatinib plasma concentration, mean (in vivo; [5]): 4372.0 ng/mL
Compound: imatinib
Imatinib plasma concentration, individual animals (in vivo; imatinib alone, 5 min): 49100 ng/mL and 50400 ng/mL and 38200 ng/mL and 61300 ng/mL and 48900 ng/mL | Imatinib plasma concentration, individual animals (in vivo; imatinib alone, 30 min): 6590 ng/mL and 11500 ng/mL and 7690 ng/mL and 13200 ng/mL and 11600 ng/mL | Imatinib plasma concentration, individual animals (in vivo; imatinib alone, 60 min): 1920 ng/mL and 1260 ng/mL and 2350 ng/mL and 2050 ng/mL and 2760 ng/mL | Imatinib plasma concentration, individual animals (in vivo; imatinib with elacridar, 5 min): 90800 ng/mL and 43500 ng/mL and 50000 ng/mL and 34400 ng/mL and 37900 ng/mL | Imatinib plasma concentration, individual animals (in vivo; [4]): 11000 ng/mL and 7860 ng/mL and 11700 ng/mL and 8910 ng/mL and 12600 ng/mL | Imatinib plasma concentration, individual animals (in vivo; [5]): 3630 ng/mL and 5580 ng/mL and 3840 ng/mL and 4710 ng/mL and 4100 ng/mL

Compound: CN(C)C(=O)C(CCN1CCC(O)(c2ccc(Cl)cc2)CC1)(c1ccccc1)c1ccccc1 [loperamide]
complications of dosing ([1]; FVB mice, i.v., control group (no elacridar)): went smoothly | complications of dosing ([1]; FVB mice, loperamide 5 mg/kg i.v. and elacridar NP 100 mg/kg p.o.): one animal died within 5 minutes after drug administration, whereas another animal had to be sacrificed at 45 min | concentration at 1 h ([1]; FVB (wildtype), mouse, in vivo, loperamide 5 mg/kg i.v. with elacridar TPGS NP 100 mg/kg p.o. about 6 h before, read-out: Brain concentration of loperamide, individual animals): 2910 ng/g | concentration at 1 h ([1]; FVB, mouse, in vivo, 5 mg/kg, loperamide 5 mg/kg i.v. alone, read-out: Brain concentration of loperamide, mean): 73 ng/g | concentration at 1 h ([1]; FVB, mouse, in vivo, loperamide 5 mg/kg i.v. with elacridar TPGS NP 100 mg/kg p.o. about 6 h before, read-out: Brain concentration of loperamide, mean): 3700 ng/g | Brain concentration of loperamide, individual animals ([1]; loperamide 5 mg/kg i.v. alone): 83.8 ng/g and 79.4 ng/g and 84.1 ng/g and 78.1 ng/g and 41.6 ng/g | Brain concentration of loperamide, mean ([1]; loperamide 5 mg/kg i.v. alone): 73.4 ng/g | Brain concentration of loperamide, individual animals [1, 6]: 4376.5 ng/g and 4288.7 ng/g and 3981.2 ng/g and 2933.5 ng/g | Brain concentration of loperamide, mean [1, 6]: 3697.8 ng/g | increase of brain penetration by concomitant elacridar NP ([1]; with vs without elacridar TPGS NP 100 mg/kg p.o., brain at 1 h): 50 fold | change of plasma AUC by concomitant elacridar dosing (in vivo; AUC 5 min to 1 h, with vs without elacridar NP): remained unchanged | concentration at 5 min (in vivo; 5 mg/kg, Loperamide plasma concentration, mean, loperamide alone, 5 min): 1.03 µg/mL | concentration at 30 min (in vivo; 5 mg/kg, Loperamide plasma concentration, mean, loperamide alone, 30 min): 0.221 µg/mL | concentration at 60 min (in vivo; 5 mg/kg, Loperamide plasma concentration, mean, loperamide alone, 60 min): 0.0814 µg/mL | concentration at 5 min (in vivo; Loperamide plasma concentration, mean, loperamide with elacridar, 5 min): 0.989 µg/mL | concentration at 30 min (in vivo; Loperamide plasma concentration, mean, loperamide with elacridar, 30 min): 0.184 µg/mL | concentration at 60 min (in vivo; Loperamide plasma concentration, mean, loperamide with elacridar, 60 min): 0.14 µg/mL | AUC(0-t) (in vivo; 5 mg/kg, Loperamide plasma AUC(0-1 h), individual animals, loperamide alone): 0.74 µg·h/mL | AUC(0-t) (in vivo; 5 mg/kg, Loperamide plasma AUC(0-1 h), individual animals, loperamide with elacridar): 0.704 µg·h/mL | AUC(0-t) (in vivo; 5 mg/kg, Loperamide plasma AUC(0-1 h), mean, loperamide alone): 0.747 µg·h/mL | AUC(0-t) (in vivo; 5 mg/kg, Loperamide plasma AUC(0-1 h), mean, loperamide with elacridar): 0.744 µg·h/mL | Loperamide plasma AUC(0-1 h), individual animals (in vivo; loperamide alone): 43377.5 ng·min/mL and 43440.0 ng·min/mL and 47625.0 ng·min/mL and 45132.5 ng·min/mL | Loperamide plasma concentration, individual animals (in vivo; loperamide alone, 5 min): 2500.0 ng/mL and 430.0 ng/mL and 599.0 ng/mL and 679.0 ng/mL and 925.0 ng/mL | Loperamide plasma concentration, individual animals (in vivo; loperamide alone, 30 min): 191.0 ng/mL and 166.0 ng/mL and 168.0 ng/mL and 354.0 ng/mL and 226.0 ng/mL | Loperamide plasma concentration, individual animals (in vivo; loperamide alone, 60 min): 111.0 ng/mL and 87.5 ng/mL and 88.0 ng/mL and 26.0 ng/mL and 94.5 ng/mL | Loperamide plasma AUC(0-1 h), individual animals (in vivo; loperamide with elacridar): 44405.0 ng·min/mL and 46040.0 ng·min/mL and 45978.8 ng·min/mL | Loperamide plasma concentration, individual animals (in vivo; loperamide with elacridar, 5 min): 1220.0 ng/mL and 306.0 ng/mL and 376.0 ng/mL and 511.0 ng/mL and 2530.0 ng/mL | Loperamide plasma concentration, individual animals (in vivo; loperamide with elacridar, 30 min): 115.0 ng/mL and 178.0 ng/mL and 163.0 ng/mL and 282.0 ng/mL | Loperamide plasma concentration, individual animals (in vivo; loperamide with elacridar, 60 min): 106.0 ng/mL and 134.0 ng/mL and 270.5 ng/mL and 48.3 ng/mL

Source: US20220133679A1, “EFFLUX INHIBITOR COMPOSITIONS AND METHODS OF TREATMENT USING THE SAME” (Izumi Technology, LLC, priority 2012, published 2022)
